Experimental findings from patent publication US20100048713A1, “COMPOUNDS ACTING ON THE SEROTONIN TRANSPORTER” (Aarhus Universitet, priority 2006, published 2010) are described below.

For orientation: EC50 means the midpoint of the concentration-response curve. A low value points to an effect from little substance. What is called IC50 is the concentration that inhibits the measured activity by half. A low value points to inhibition by little substance.

Data set [1] addresses T1, hSERT (Homo sapiens, UniProt P31645).
T1 construct: expressed in transfected cells; the general 96-well protocol names Cos-1
Briefly: Binding assay on whole cells transfected with hSERT ([3H]-citalopram displacement). The following applies: whole cell assay, 35 nM [3H]-citalopram, 60 min room temperature; table title: 45 min preincubation. The procedure: The pcDNA3 plasmid vector containing the hSERT gene was used for transfection (see FIG. 6).
The 96-well plate was washed with PBSCM to remove DMEM prior to the assay. […] The plate was subsequently incubated for 60 min at room temperature. The assay was terminated by washing once with PBSCM. The amount of accumulated [^3H]-citalopram was determined by solubilizing cells in scintillant (MicroScint 20) with direct counting of plates in a Packard TopCounter. Data was analyzed by GraphPad software.

The target of data set [2] is T1, hSERT. Briefly: 5-HT uptake assay with preincubation (whole cells). The following applies: whole cell assay with preincubation (title 45 min, text 60 min), 75 nM [3H]-5-HT, 10 min. Format: cell-based. The method, then: 7 μl Fugene-6 was mixed with 112 μl Dulbecco's modified Eagle's medium, and incubated at room temperature for 5 minutes. 4 μg of plasmid were added and the mixture was further incubated at least 15 minutes. Cos-1 cells were trypsinized and suspended in growth media, and the plasmid/Fugene-6 mixture was added followed by dispersion into a 96-well plate.
The 96-well plate was washed with PBSCM to remove DMEM prior to the assay. 50 μl PBSCM containing increasing concentrations of allosteric ligand were added to each well, and incubated for 60 min at room temperature under moderate agitation. […] The plate was subsequently incubated for 10 min at room temperature. The assay was terminated by washing once with PBSCM. The amount of accumulated [^3H]-5-HT was determined by solubilizing cells in scintillant (MicroScint 20) with direct counting of plates in a Packard TopCounter. Data was analyzed by GraphPad software.
We tested the allosteric ligands for their ability to inhibit/activate 5-HT-uptake in the whole-cell assay after 60 minutes preincubation.

Data set [3] has as its target T1, hSERT. Briefly: Binding of [125I]-RTI-55 in whole cell assay, hSERT. The following applies: displacement of [125I]-RTI-55. An excerpt: RTI-55 was used to test for the compounds of the present invention to act as displacers of cocain.
(§1) Because RTI-55 (and cocaine) acts as inhibitors of SERT and DAT, we also performed the binding assay in cells transfected with human DAT.
Background: Loss of bound radioactivity is the signal in a displacement assay; it reports binding, not function.

The target of a further data set is T2, hDAT (Homo sapiens, UniProt Q01959).
T2 construct: expressed in transfected cells
Briefly: Binding of [125I]-RTI-55 in whole cell assay, cells transfected with human DAT. To be noted: displacement of [125I]-RTI-55.
Source text: A binding assay as described in example 2, wherein the cocaine analogue [^125I] RTI-55 was used to test for the compounds of the present invention to act as displacers of cocain.
as §1

Data set [4] concerns dorsal raphe 5-HT neurons. Format: in vivo. The procedure: The experiments were carried out in male Sprague-Dawley rats weighing 250-300 g at the day of the recording. Prior to the acute study, a dose-response curve on the suppressive effect on neuronal firing of fluoxetine was constructed. Subsequently, in the acute study, 5 mg/kg 1-NSC was injected i.v. followed by administration of 1 mg/kg fluoxetine. In the chronic administration experiments, groups of rats were treated with fluoxetine (10 mg/kg/day), 1-NSC (2×10 mg/kg/day) or in combination for 7 days delivered subcutaneously (s.c.) with osmotic minipumps. Control rats received a minipump containing vehicle (NaCl 0.9%). The rats were tested with the minipumps in place.
Extracellular recordings were performed with single-barreled glass micropipettes preloaded with fiberglass filaments in order to facilitate filling. The tip was broken back to 2-4 μm and filled with a 2 M NaCl solution saturated with Pontamine Sky Blue to stain the location. The rats were placed in a stereotaxic frame and a burr hole was drilled on the midline, 1 mm anterior to lambda. Presumed DRN 5-HT neurons were encountered over a distance of 1 mm starting immediately below the ventral border of the Sylvius aqueduct. These neurons were identified using the criteria of Aghajanian (1978): a slow (0.5-2.5 Hz) and regular firing rate and long-duration (0.8-1.2 ms) positive action potentials; they were also verified to be located in DRN. WAY 100635 (N-{2-[4(2-methoxyphenyl)-1-piperazinyl]ethyl}-N-(2-pyridinyl)cyclohexanecarboxamide trihydrochloride; 50-100 μg/kg, i.v.) was used to reverse the suppressant effect of fluoxetine or fluoxetine/1-NSC on the firing activity of DRN 5-HT neurons. […] For the chronic studies, in order to determine the possible changes of the spontaneous firing activity of dorsal raphe 5-HT neurons, four to five electrode descents were carried out through this nucleus, in rats with minipumps in place.
The allosteric ligand 1-NSC was tested in vivo in Sprague-Dawley rats for the ability to interfere with fluoxetine-induced suppression of the neuronal firing rate (Assay 6).

For data set [5], the target named is T1, hSERT. Briefly: 5-HT uptake assay, 10 min incubation without preincubation. Format: cell-based. The following applies: 75 nM [3H]-5-HT, no preincubation. The procedure:
Cells were grown for 48 h to confluency, and prior to uptake assay, plates were washed in PBSCM. All washing steps were carried out in an automatic plate washer. […] The assay was terminated by washing with PBSCM. The amount of accumulated [^3H]-5HT was determined by solubilizing cells in scintillant (MicroScint 20) with direct counting of plates in a Packard TopCounter. Data was analyzed by GraphPad software.
(§2) Dissociation of [^3H]-citalopram from the serotonin transporter has been studied using membrane preparations from SERT-expressing cells. The off-rates of the radioligand were measured in the presence/absence of a fixed concentration of allosteric ligand. […] Additionally, the allosteric impact on the radioligand in the absence of citalopram, was studied by combining 10 μM fluoxetine and 200/2000 μM allosteric ligand in the dissociation buffer. […] The cells were incubated for 10 minutes before the assay was terminated by washing in PBSCM.

Data set [6] deals with T1, hSERT. Briefly: Binding of [3H]-citalopram to membrane preparations. To be noted: 35 nM [3H]-citalopram, 60 min RT. The procedure: (§3) 17.5 μl Fugene-6 (Roche Molecular Biochemicals) were mixed with 280 μl Dulbecco's modified Eagle's medium, and incubated at room temperature for 5 minutes. 10 μg of plasmid were added and the mixture was further incubated at least 15 minutes. […] Prior to harvesting the dish was rinsed in PBS. Cells were harvested with a cell scraper in buffer 1 (50 mM Tris-base, 150 mM NaCl, 20 mM EDTA, pH 7.4). After centrifugation (3000 g at 4° C. for 10 mins), cells were suspended and homogenized with an IKA Ultra-Turrax from Rose Scientific Ltd (Edmonton, Alberta, Canada) for 20 s in buffer 1. Membranes were pelleted by ultracentrifugation (12 000 g at 4° C. for 15 min) and homogenization was repeated in buffer 1. Finally, after ultracentrifugation (12000 g, 4° C., 15 min) membranes were resuspended in 1 ml buffer 3 (50 mM Tris-base, 120 mM NaCl, 5 mM KCl, pH 7.4) and stored at −80° C.
A dilution series of the allosteric ligand was prepared in buffer 3 containing 70 nM [^3H]-citalopram. […] The mixture was incubated under moderate agitation at RT for 60 min. Reactions were terminated by filtration through GF/C glass-fibre filters (Unifilter, Perkin Elmer Life Sciences), preincubated with 40 μl 0.5 % polyethyleneimine, using a Pachard Bell cell harvester, and subsequently washed three times with water. Filters were soaked in 40 μl Microscint 20 scintillation liquid (Pachard Bell). Bound radioactivity was determined by direct counting of plates using a Packard Bell microplate scintillation counter. Displacing curves were obtained by plotting residual binding vs. log concentration of the displacing ligand.

The target of data set [7] is T1, hSERT. Briefly: Dissociation assay with [3H]-citalopram and hSERT membrane preparations. Format: binding. The following applies: for Stabilises dissociation of [3H]-citalopram: own effect (10 uM fluoxetine) (concentration which affects dissociation): 10 uM fluoxetine in dissociation buffer; for Stabilises dissociation of [3H]-citalopram: 15 uM citalopram (concentration which affects dissociation): 15 uM citalopram in dissociation buffer. The method, then: as §3
Dissociation assay with [^3H]-citalopram and membrane preparations SERT-[^3H]-citalopram complex was formed by incubating hSERT membrane preparation and radioligand in buffer 3 during a 60 min incubation at 4° C. Radioligand was present at a concentration 10 times the Kd value. The time kinetic of dissociation was followed by adding 10 μL complex solution to 250 μL buffer 3 in 96-well plates and incubating subsequently for increasing time intervals at RT. Reactions were terminated by filtration through GF/C glass-fibre filters (Unifilter, Perkin Elmer Life Sciences), preincubated with 40 μl 0.5 % polyethyleneimine, using a Pachard Bell cell harvester, and subsequently washed three times with water. Filters were soaked in 40 μl Microscint 20 scintillation liquid (Pachard Bell). Bound radioactivity was determined by direct counting of plates using a Packard Bell microplate scintillation counter. Dissociation curves were obtained by plotting residual binding vs. time of dissociation.
The interaction of the allosteric ligand with the allosteric mechanism used by citalopram was studied by combining allosteric ligand and citalopram in the dissociation buffer. The interaction of the allosteric ligand with the radioligand was studied by combining the allosteric ligand and fluoxetine in the dissociation buffer.
as §2

SMILES strings stand for the structures. “Also recorded” adds a separate entry of the source.

T1 sequence (P31645 whole entry): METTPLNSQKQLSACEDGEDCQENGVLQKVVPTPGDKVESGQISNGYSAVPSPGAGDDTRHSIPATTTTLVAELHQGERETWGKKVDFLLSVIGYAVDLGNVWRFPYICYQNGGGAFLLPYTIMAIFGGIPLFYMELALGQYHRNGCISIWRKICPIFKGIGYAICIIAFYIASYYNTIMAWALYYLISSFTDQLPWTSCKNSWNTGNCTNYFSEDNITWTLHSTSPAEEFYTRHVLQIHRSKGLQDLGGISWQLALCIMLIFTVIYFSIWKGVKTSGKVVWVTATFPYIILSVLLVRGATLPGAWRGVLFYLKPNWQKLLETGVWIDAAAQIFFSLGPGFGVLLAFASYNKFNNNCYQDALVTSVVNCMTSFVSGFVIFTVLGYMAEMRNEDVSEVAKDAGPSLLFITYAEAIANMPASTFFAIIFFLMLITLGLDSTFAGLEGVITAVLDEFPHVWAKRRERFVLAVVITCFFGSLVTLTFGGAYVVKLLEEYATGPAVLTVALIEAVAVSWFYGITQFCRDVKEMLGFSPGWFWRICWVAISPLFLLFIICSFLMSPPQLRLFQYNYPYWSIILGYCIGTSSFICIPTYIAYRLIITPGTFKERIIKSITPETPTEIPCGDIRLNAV
T2 sequence (Q01959 whole entry): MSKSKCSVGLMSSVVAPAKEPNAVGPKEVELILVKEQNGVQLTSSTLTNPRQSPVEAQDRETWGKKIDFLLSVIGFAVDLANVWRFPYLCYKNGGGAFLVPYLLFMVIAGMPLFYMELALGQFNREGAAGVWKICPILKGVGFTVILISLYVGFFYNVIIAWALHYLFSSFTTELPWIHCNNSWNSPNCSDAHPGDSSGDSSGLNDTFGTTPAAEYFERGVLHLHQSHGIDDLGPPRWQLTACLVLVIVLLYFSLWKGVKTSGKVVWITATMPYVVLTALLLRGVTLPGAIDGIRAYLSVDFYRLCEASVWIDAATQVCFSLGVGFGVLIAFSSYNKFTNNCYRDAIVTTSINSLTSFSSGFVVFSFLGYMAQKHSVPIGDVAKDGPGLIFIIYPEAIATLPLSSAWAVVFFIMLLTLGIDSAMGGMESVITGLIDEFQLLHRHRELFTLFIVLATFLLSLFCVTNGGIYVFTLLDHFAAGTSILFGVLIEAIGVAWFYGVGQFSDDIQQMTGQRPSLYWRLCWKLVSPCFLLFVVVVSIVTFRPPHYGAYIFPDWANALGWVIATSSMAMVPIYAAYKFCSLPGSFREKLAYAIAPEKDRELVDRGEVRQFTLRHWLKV

For the compound `Nc1c(O)cc(S(=O)(=O)O)c2ccccc12` [TS16], the half-maximal effective concentration (EC50) came out at 54 µM on hSERT [1], 1.1 µM at hSERT [3] and 2.9 µM at hDAT. In addition, on hSERT [2], the 50% inhibitory concentration (IC50) worked out at 453 µM.

Consider `O=C(O)c1ccc2ccccc2c1O` [TS27], for which the concentration for a half-maximal effect (EC50) at hSERT [1] was 185 µM; at hSERT [3], 220 µM; at hDAT it was 138 µM. Further, the IC50 against hSERT [2] was 275 µM.

In the case of `O=C(O)c1c(O)ccc2ccccc12` [TS28], the EC50 at hSERT [1] worked out at 276 µM; on hSERT [3] it was 510 µM; at hDAT it was 288 µM. Moreover, the IC50 against hSERT [2] is over 2000 µM.

For the compound `COc1ccccc1N1CCN(CCN(C(=O)C2CCCCC2)c2ccccn2)CC1.Cl.Cl.Cl` [Way 100,635, N-{2-[4(2-methoxyphenyl)-1-piperazinyl]ethyl}-N-(2-pyridinyl)cyclohexanecarboxamide trihydrochloride, reference compound], in data set [4] (50-100 ug/kg i.v. after fluoxetine or fluoxetine/1-NSC, trihydrochloride), the “reversal of suppression of the neuronal firing rate” value is recorded as “reverses the suppressive effect of fluoxetine on the neuronal firing rate; also recorded: completely restored the neuronal firing rate”.

Consider `OB(O)c1ccccc1` [TS3], for which the 50% effective concentration (EC50) on hSERT [1] is 1420 µM; at hSERT [3], over 2000 µM; at hDAT, over 2000 µM. Further, the concentration for half-maximal inhibition (IC50) at hSERT [2] was determined as 735 µM.

With `CNCCC(Oc1ccc(C(F)(F)F)cc1)c1ccccc1` (centres unmarked) [fluoxetine, reference compound], the “recovery of the firing rates” value in data set [4] (chronic treatment 7 days s.c. minipumps, rats (FIG. 2)) came out at 30%.

For the compound `Nc1ccc(S(=O)(=O)O)c2ccccc12` [TS12], the values for the concentration giving a half-maximal response (EC50) at hSERT [1], on hSERT [3] and at hDAT were 523 µM, 269 µM and 212 µM, respectively.

In the case of `Cc1ccc(S(=O)(=O)n2ccnc2)cc1` [TS14], the EC50 turned out to be 1260 µM at hSERT [1], 2310 µM at hSERT [3] and 1280 µM on hDAT. Further, at hSERT [5], the “5-HT uptake (effect)” value was “No effect”. The “Binding of [3H]-citalopram (Bmax)” value at hSERT [6] is reported as “No effect”. Besides, on hSERT [2], inhibition was half-maximal at 1820 µM (IC50). Besides, on hSERT [7], the “Stabilises dissociation of [3H]-citalopram: own effect (10 uM fluoxetine) (concentration which affects dissociation)” value was 2000 µM. Further, the “Stabilises dissociation of [3H]-citalopram: 15 uM citalopram (concentration which affects dissociation)” value on hSERT [7] was determined as 2000 µM.

As to `CC(=O)c1ccccc1` [TS9], the EC50 was 990 µM on hSERT [1], over 2000 µM on hSERT [3] and over 2000 µM on hDAT. Further, the 50% inhibitory concentration (IC50) against hSERT [2] was over 2000 µM.

For `O=S(=O)(Cl)c1cccc2ccccc12` [1-NSC, 1-naphthalenesulfonyl chloride], the “5-HT uptake (effect)” value at hSERT [5] was “Increase”. Further, the “Binding of [3H]-citalopram (Bmax)” value on hSERT [6] is “Displace”. Also, at hSERT [7], the “Stabilises dissociation of [3H]-citalopram: own effect (10 uM fluoxetine) (concentration which affects dissociation)” value came out at 2000 µM and the “Stabilises dissociation of [3H]-citalopram: 15 uM citalopram (concentration which affects dissociation)” value was 2000 µM. In data set [4] (acute injection, restored within minutes (FIG. 1)), the “effect of 1-NSC alone on neuronal firing rate” value is on record as “small decrease in neuronal firing rate”. Besides, the “effect on fluoxetine-induced suppression of the neuronal firing rate” value in data set [4] (acute study, 5 mg/kg 1-NSC then 1 mg/kg fluoxetine, DRN (FIG. 1)) is reported as “acutely enhances the fluoxetine-induced suppression of the neuronal firing rate; also recorded: potentiation of the fluoxetine-induced suppression of the neuronal firing rate”. Further, the “recovery of dorsal raphe 5-HT neuronal firing of fluoxetine treated rats (FIG. 2)” value in data set [4] (chronic treatment, 7 day period) is on record as “potentiated”. In addition, the toxic side effects entry in data set [4] (doses used in the experiments of FIGS. 1 and 2, rats) is on record as “no apparent toxic side effects”.
